Measured values reported in ChEMBL document CHEMBL1201862, “PubChem BioAssay data set” (2004).
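Test compounds were applied to cells in 96-well plates for 48 hours at 5 doses. GI50 is the concentration that inhibits growth by half.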 The source made the active and inactive calls. Rule as the data show it: active = GI50 up to about 1.1 µM and inactive = higher.

Experiments:
Test in all cases: NCI tumour cell line growth inhibition, 48 h
DU-145 = test system: DU-145
SNB-75 = test system: SNB-75
COLO 205 = test system: COLO 205
OVCAR-3 = test system: OVCAR-3
K562 = test system: K562
RPMI-8226 = test system: RPMI-8226
NCI-H226 = test system: NCI-H226
NCI-H460 = test system: NCI-H460
MCF7 = test system: MCF7
SK-OV-3 = test system: SK-OV-3
UACC-257 = test system: UACC-257
IGROV-1 = test system: IGROV-1
SNB-19 = test system: SNB-19
OVCAR-4 = test system: OVCAR-4
SK-MEL-28 = test system: SK-MEL-28
BT-549 = test system: BT-549
KM12 = test system: KM12
UACC-62 = test system: UACC-62
NCI/ADR-RES = test system: NCI/ADR-RES
SN12C = test system: SN12C
HCT-15 = test system: HCT-15
ACHN = test system: ACHN
HL-60 = test system: HL-60
LOX IMVI = test system: LOX IMVI
SF-295 = test system: SF-295
NCI-H522 = test system: NCI-H522
SK-MEL-5 = test system: SK-MEL-5
A498 = test system: A498
HOP-62 = test system: HOP-62
EKVX = test system: EKVX
MOLT-4 = test system: MOLT-4
SR = test system: SR
T47D = test system: T47D
CCRF-CEM = test system: CCRF-CEM
SF-539 = test system: SF-539
HOP-92 = test system: HOP-92
Hs-578T = test system: Hs-578T
MDA-N = test system: MDA-N
HT-29 = test system: HT-29
786-0 = test system: 786-0
TK-10 = test system: TK-10
OVCAR-8 = test system: OVCAR-8
OVCAR-5 = test system: OVCAR-5
A549 = test system: A549
NCI-H23 = test system: NCI-H23
M14 = test system: M14
HCT-116 = test system: HCT-116
UO-31 = test system: UO-31
RXF 393 = test system: RXF 393
HCC 2998 = test system: HCC 2998
SW-620 = test system: SW-620
SF-268 = test system: SF-268
Malme-3M = test system: Malme-3M
MDA-MB-435 = test system: MDA-MB-435
CAKI-1 = test system: CAKI-1
MDA-MB-231 = test system: MDA-MB-231
SK-MEL-2 = test system: SK-MEL-2
U-251 = test system: U-251

CC(C)(C)c1ccc(C(C)(C)C)c(N2C(=O)C3ON=C(c4ccc([N+](=O)[O-])cc4)C3C2=O)c1 (centres undefined)
GI50 (DU-145): 10.8 µM (inactive)
GI50 (SNB-75): 5.07 µM (inactive)
GI50 (COLO 205): > 25 µM (inactive)
GI50 (OVCAR-3): 10.5 µM (inactive)
GI50 (K562): 11 µM (inactive)
GI50 (RPMI-8226): 10 µM (inactive)
GI50 (NCI-H226): 18.6 µM (inactive)
GI50 (NCI-H460): 6.75 µM (inactive)
GI50 (MCF7): 22.8 µM (inactive)
GI50 (SK-OV-3): > 25 µM (inactive)
GI50 (UACC-257): > 25 µM (inactive)
GI50 (IGROV-1): 4.5 µM (inactive)
GI50 (SNB-19): > 25 µM (inactive)
GI50 (OVCAR-4): 8.57 µM (inactive)
GI50 (SK-MEL-28): > 25 µM (inactive)
GI50 (BT-549): > 25 µM (inactive)
GI50 (KM12): > 25 µM (inactive)
GI50 (UACC-62): 17.8 µM (inactive)
GI50 (NCI/ADR-RES): 17.3 µM (inactive)
GI50 (SN12C): > 25 µM (inactive)
GI50 (HCT-15): 20.3 µM
GI50 (ACHN): 15.2 µM (inactive)
GI50 (HL-60): > 25 µM (inactive)
GI50 (LOX IMVI): 9.04 µM (inactive)
GI50 (SF-295): 12.9 µM (inactive)
GI50 (NCI-H522): 18.4 µM (inactive)
GI50 (SK-MEL-5): > 25 µM (inactive)
GI50 (A498): 5.96 µM (inactive)
GI50 (HOP-62): 23.4 µM (inactive)
GI50 (EKVX): 20.3 µM (inactive)
GI50 (MOLT-4): > 25 µM (inactive)
GI50 (SR): 3.48 µM (inactive)
GI50 (T47D): > 25 µM (inactive)
GI50 (CCRF-CEM): > 25 µM (inactive)
GI50 (SF-539): > 25 µM (inactive)
GI50 (HOP-92): 9.46 µM (inactive)
GI50 (Hs-578T): 6.98 µM (inactive)
GI50 (MDA-N): 7.38 µM (inactive)
GI50 (HT-29): 21.4 µM (inactive)
GI50 (786-0): 3.15 µM (inactive)
GI50 (TK-10): > 25 µM (inactive)
GI50 (OVCAR-8): 10.4 µM (inactive)
GI50 (OVCAR-5): > 25 µM (inactive)
GI50 (A549): 5.61 µM (inactive)
GI50 (NCI-H23): > 25 µM (inactive)
GI50 (M14): > 25 µM (inactive)
GI50 (HCT-116): 13.7 µM (inactive)
GI50 (UO-31): 22.1 µM (inactive)
GI50 (RXF 393): 15.1 µM (inactive)
GI50 (HCC 2998): 5.02 µM (inactive)
GI50 (SW-620): 16.2 µM (inactive)
GI50 (SF-268): 13.7 µM (inactive)
GI50 (Malme-3M): > 25 µM (inactive)
GI50 (MDA-MB-435): 8.77 µM (inactive)
GI50 (CAKI-1): > 25 µM (inactive)

Cc1nc2ccc(F)cc2c2c1CCO2
GI50 (DU-145): > 100 µM (inactive)
GI50 (SNB-75): > 100 µM (inactive)
GI50 (COLO 205): 72.8 µM (inactive)
GI50 (K562): 41.5 µM (inactive)
GI50 (RPMI-8226): 80 µM (inactive)
GI50 (NCI-H226): > 100 µM (inactive)
GI50 (NCI-H460): 61.1 µM (inactive)
GI50 (UACC-257): > 100 µM (inactive)
GI50 (IGROV-1): > 100 µM (inactive)
GI50 (SNB-19): > 100 µM (inactive)
GI50 (OVCAR-4): > 100 µM (inactive)
GI50 (SK-MEL-28): > 100 µM (inactive)
GI50 (BT-549): 80 µM (inactive)
GI50 (KM12): > 100 µM (inactive)
GI50 (UACC-62): > 100 µM (inactive)
GI50 (NCI/ADR-RES): > 100 µM (inactive)
GI50 (SN12C): 30.3 µM (inactive)
GI50 (HCT-15): > 100 µM
GI50 (MDA-MB-231): 20.1 µM (inactive)
GI50 (ACHN): > 100 µM (inactive)
GI50 (HL-60): 24.5 µM (inactive)
GI50 (LOX IMVI): > 100 µM (inactive)
GI50 (SF-295): > 100 µM (inactive)
GI50 (NCI-H522): > 100 µM (inactive)
GI50 (SK-MEL-5): 43.5 µM (inactive)
GI50 (A498): > 100 µM (inactive)
GI50 (EKVX): 39.7 µM (inactive)
GI50 (MOLT-4): > 100 µM (inactive)
GI50 (SR): > 100 µM (inactive)
GI50 (T47D): 52.6 µM (inactive)
GI50 (CCRF-CEM): > 100 µM (inactive)
GI50 (SF-539): > 100 µM (inactive)
GI50 (HOP-92): 78.7 µM (inactive)
GI50 (Hs-578T): > 100 µM (inactive)
GI50 (MDA-N): 27.7 µM (inactive)
GI50 (HT-29): 82.6 µM (inactive)
GI50 (786-0): > 100 µM (inactive)
GI50 (TK-10): > 100 µM (inactive)
GI50 (SK-MEL-2): > 100 µM (inactive)
GI50 (OVCAR-8): > 100 µM (inactive)
GI50 (OVCAR-5): > 100 µM (inactive)
GI50 (A549): > 100 µM (inactive)
GI50 (NCI-H23): > 100 µM (inactive)
GI50 (M14): 99.1 µM (inactive)
GI50 (HCT-116): 68.1 µM (inactive)
GI50 (UO-31): 92.3 µM (inactive)
GI50 (RXF 393): 36.8 µM (inactive)
GI50 (HCC 2998): 79.1 µM (inactive)
GI50 (SW-620): > 100 µM (inactive)
GI50 (SF-268): > 100 µM (inactive)
GI50 (Malme-3M): > 100 µM (inactive)
GI50 (MDA-MB-435): 70.1 µM (inactive)
GI50 (U-251): 66.2 µM (inactive)
GI50 (CAKI-1): 15.2 µM (inactive)
